Tested on: mPTPB transfected Raw264.7 cells
Assay: Blocking mPTPB-mediated signaling, Western blotting
Format: cell-based, mouse
Conditions: dose-dependent

O=C(O)C(=O)Nc1ccc(C#Cc2ccc(C(F)(F)F)cc2Cl)cc1 [Compound 4t, 2-((4-((2-chloro-4-(trifluoromethyl)phenyl)ethynyl)phenyl)amino)-2-oxoacetic Acid]
Akt activity: reduced
IFN-γ induced phosphorylation of ERK1/2 and p38: increased
